The text below walks through data of PubChem BioAssay AID1259407 (Chemical Carcinogenesis Research Information System (CCRIS), 2018).

Calls of active or inactive are those of the source. No rule for the calls is given here.

In the data set the test system is CCRIS mutagenicity, Ames/micronucleus/aberration tests. Description: CCRIS mutagenicity studies.
Where [1] appears, read: Test System: AMES SALMONELLA TYPHIMURIUM, Strain/Indicator: TA98, Metabolic Activation: NONE, Method: STANDARD PLATE.
Setting [2] is: Test System: AMES SALMONELLA TYPHIMURIUM, Strain/Indicator: TA100, Metabolic Activation: NONE, Method: STANDARD PLATE.
The mark [3] stands for this setting: Test System: AMES SALMONELLA TYPHIMURIUM, Strain/Indicator: TA1535, Metabolic Activation: NONE, Method: STANDARD PLATE.
Setting [4] is: Test System: AMES SALMONELLA TYPHIMURIUM, Strain/Indicator: TA1537, Metabolic Activation: NONE, Method: STANDARD PLATE.

For `Cc1nc2c(c3[nH]c4ccccc4c13)C(=O)C=C(N1CC1)C2=O`, the mutagenic call (Test System: AMES SALMONELLA TYPHIMURIUM, Strain/Indicator: TA97, Metabolic Activation: NONE, Method: STANDARD PLATE) is “active; positive”; the mutagenic call (Test System: AMES SALMONELLA TYPHIMURIUM, Strain/Indicator: TA97, Metabolic Activation: RAT, LIVER, S-9, AROCLOR 1254, Method: STANDARD PLATE) is “active; positive”; the mutagenic call under setting [1] is “active; positive”; the mutagenic call (Test System: AMES SALMONELLA TYPHIMURIUM, Strain/Indicator: TA98, Metabolic Activation: RAT, LIVER, S-9, AROCLOR 1254, Method: STANDARD PLATE) was “active; positive”; the mutagenic call under setting [2] is “active; positive”; the mutagenic call (Test System: AMES SALMONELLA TYPHIMURIUM, Strain/Indicator: TA100, Metabolic Activation: RAT, LIVER, S-9, AROCLOR 1254, Method: STANDARD PLATE) was “active; positive”. In addition, the mutagenic call runs as follows: (Test System: AMES SALMONELLA TYPHIMURIUM, Strain/Indicator: TA102, Metabolic Activation: NONE, Method: STANDARD PLATE) “inactive; negative”; (Test System: AMES SALMONELLA TYPHIMURIUM, Strain/Indicator: TA102, Metabolic Activation: RAT, LIVER, S-9, AROCLOR 1254, Method: STANDARD PLATE) “active; positive”.

`CCN(CC)CC#CC(C)(C)OC(=O)C(O)(c1ccccc1)C1CCCCC1` (stereo not given): the mutagenic call under setting [1] was “inactive; negative”; the mutagenic call (Test System: AMES SALMONELLA TYPHIMURIUM, Strain/Indicator: TA98, Metabolic Activation: RAT, LIVER, S-9, PHENOBARBITAL AND 5,6-BENZOFLAVONE, Method: STANDARD PLATE) was “inactive; negative”; the mutagenic call under setting [2] is “inactive; negative”; the mutagenic call (Test System: AMES SALMONELLA TYPHIMURIUM, Strain/Indicator: TA100, Metabolic Activation: RAT, LIVER, S-9, PHENOBARBITAL AND 5,6-BENZOFLAVONE, Method: STANDARD PLATE) was “inactive; negative”; the mutagenic call under setting [3] was “inactive; negative”; the mutagenic call (Test System: AMES SALMONELLA TYPHIMURIUM, Strain/Indicator: TA1535, Metabolic Activation: RAT, LIVER, S-9, PHENOBARBITAL AND 5,6-BENZOFLAVONE, Method: STANDARD PLATE) is “inactive; negative”. The mutagenic call was “inactive; negative” under setting [4]; “inactive; negative” (Test System: AMES SALMONELLA TYPHIMURIUM, Strain/Indicator: TA1537, Metabolic Activation: RAT, LIVER, S-9, PHENOBARBITAL AND 5,6-BENZOFLAVONE, Method: STANDARD PLATE); “inactive; negative” (Test System: E. COLI, Strain/Indicator: WP2 UVRA, Metabolic Activation: NONE, Method: STANDARD PLATE); “inactive; negative” (Test System: E. COLI, Strain/Indicator: WP2 UVRA, Metabolic Activation: RAT, LIVER, S-9, PHENOBARBITAL AND 5,6-BENZOFLAVONE, Method: STANDARD PLATE).

As for `Nc1nc(-c2ccc([N+](=O)[O-])cc2)nc2c1ncn2[C@@H]1O[C@H](CO)[C@@H](O)[C@H]1O`, the mutagenic call (Test System: AMES SALMONELLA TYPHIMURIUM, Strain/Indicator: TA98(1,8-DNP), Metabolic Activation: NONE, Method: PREINCUBATION) is “active; positive”; the mutagenic call (Test System: AMES SALMONELLA TYPHIMURIUM, Strain/Indicator: TA98(NR), Metabolic Activation: NONE, Method: PREINCUBATION) was “active; positive”; the mutagenic call (Test System: AMES SALMONELLA TYPHIMURIUM, Strain/Indicator: TA98(NR), Metabolic Activation: RAT, LIVER, S-9, PCB, Method: PREINCUBATION) was “inactive; negative”; the mutagenic call (Test System: AMES SALMONELLA TYPHIMURIUM, Strain/Indicator: TA98, Metabolic Activation: NONE, Method: PREINCUBATION) was “active; positive”; the mutagenic call (Test System: AMES SALMONELLA TYPHIMURIUM, Strain/Indicator: TA98, Metabolic Activation: RAT, LIVER, S-9, PCB, Method: PREINCUBATION) was “active; positive”; the mutagenic call (Test System: AMES SALMONELLA TYPHIMURIUM, Strain/Indicator: TA100(1,8-DNP), Metabolic Activation: RAT, LIVER, S-9, PCB, Method: PREINCUBATION) was “inactive; negative”. Also, the mutagenic call is “inactive; negative” (Test System: AMES SALMONELLA TYPHIMURIUM, Strain/Indicator: TA100(NR), Metabolic Activation: RAT, LIVER, S-9, PCB, Method: PREINCUBATION); “active; positive” (Test System: AMES SALMONELLA TYPHIMURIUM, Strain/Indicator: TA100, Metabolic Activation: NONE, Method: PREINCUBATION); “active; positive” (Test System: AMES SALMONELLA TYPHIMURIUM, Strain/Indicator: TA100, Metabolic Activation: RAT, LIVER, S-9, PCB, Method: PREINCUBATION); “active; positive” (Test System: AMES SALMONELLA TYPHIMURIUM, Strain/Indicator: YG1020, Metabolic Activation: NONE, Method: PREINCUBATION); “active; positive” (Test System: AMES SALMONELLA TYPHIMURIUM, Strain/Indicator: YG1020, Metabolic Activation: RAT, LIVER, S-9, PCB, Method: PREINCUBATION); “active; positive” (Test System: AMES SALMONELLA TYPHIMURIUM, Strain/Indicator: YG1021, Metabolic Activation: NONE, Method: PREINCUBATION). Besides, the mutagenic call was “active; positive” (Test System: AMES SALMONELLA TYPHIMURIUM, Strain/Indicator: YG1021, Metabolic Activation: RAT, LIVER, S-9, PCB, Method: PREINCUBATION); “active; positive” (Test System: AMES SALMONELLA TYPHIMURIUM, Strain/Indicator: YG1024, Metabolic Activation: NONE, Method: PREINCUBATION); “active; positive” (Test System: AMES SALMONELLA TYPHIMURIUM, Strain/Indicator: YG1024, Metabolic Activation: RAT, LIVER, S-9, PCB, Method: PREINCUBATION); “active; positive” (Test System: AMES SALMONELLA TYPHIMURIUM, Strain/Indicator: YG1025, Metabolic Activation: NONE, Method: PREINCUBATION); “active; positive” (Test System: AMES SALMONELLA TYPHIMURIUM, Strain/Indicator: YG1025, Metabolic Activation: RAT, LIVER, S-9, PCB, Method: PREINCUBATION); “active; positive” (Test System: AMES SALMONELLA TYPHIMURIUM, Strain/Indicator: YG1026, Metabolic Activation: NONE, Method: PREINCUBATION). Besides, the mutagenic call is, setting by setting: (Test System: AMES SALMONELLA TYPHIMURIUM, Strain/Indicator: YG1026, Metabolic Activation: RAT, LIVER, S-9, PCB, Method: PREINCUBATION) “active; positive”; (Test System: AMES SALMONELLA TYPHIMURIUM, Strain/Indicator: YG1029, Metabolic Activation: NONE, Method: PREINCUBATION) “active; positive”; (Test System: AMES SALMONELLA TYPHIMURIUM, Strain/Indicator: YG1029, Metabolic Activation: RAT, LIVER, S-9, PCB, Method: PREINCUBATION) “active; positive”.

Consider `C/C=C(/C(=C/C)c1ccc(O)cc1)c1ccc(O)cc1`, for which the mutagenic call by setting is: (End Point: IN VITRO CHROMOSOMAL ABERRATIONS, Test System: CHINESE HAMSTER CELL DON (22;XY), Metabolic Activation: NONE) “active; positive (ploidy changes)”; under setting [1], “inactive; negative”; (Test System: AMES SALMONELLA TYPHIMURIUM, Strain/Indicator: TA98, Metabolic Activation: RAT, LIVER, S-9, Method: STANDARD PLATE) “inactive; negative”; under setting [2], “inactive; negative; toxicity at 100 ug/plate”; (Test System: AMES SALMONELLA TYPHIMURIUM, Strain/Indicator: TA100, Metabolic Activation: RAT, LIVER, S-9, Method: STANDARD PLATE) “inactive; negative; toxicity at 100 ug/plate”; under setting [3], “inactive; negative; toxicity at 50 ug/plate”. Moreover, the mutagenic call (Test System: AMES SALMONELLA TYPHIMURIUM, Strain/Indicator: TA1535, Metabolic Activation: RAT, LIVER, S-9, Method: STANDARD PLATE) is “inactive; negative; toxicity at 100 ug/plate”; the mutagenic call under setting [4] was “inactive; negative”; the mutagenic call (Test System: AMES SALMONELLA TYPHIMURIUM, Strain/Indicator: TA1537, Metabolic Activation: RAT, LIVER, S-9, Method: STANDARD PLATE) is “inactive; negative”; the mutagenic call (Test System: AMES SALMONELLA TYPHIMURIUM, Strain/Indicator: TA1538, Metabolic Activation: NONE, Method: STANDARD PLATE) was “inactive; negative”; the mutagenic call (Test System: AMES SALMONELLA TYPHIMURIUM, Strain/Indicator: TA1538, Metabolic Activation: RAT, LIVER, S-9, Method: STANDARD PLATE) is “inactive; negative; toxicity at 100 ug/plate”.
